Experimental data as given in ChEMBL document CHEMBL3352542, “Synthesis, biological evaluation and molecular modeling study of 2-(1,3,4-thiadiazolyl-thio and 4-methyl-thiazolyl-thio)-quinazolin-4-ones as a new class of DHFR inhibitors” (Bioorg Med Chem Lett, 2014).
Activity calls are given as the source filed them. The calls are words filed in the database; no cut-off is given here.

Tests used:
Escherichia coli [1] = assay: Antimicrobial activity against Escherichia coli assessed as inhibition zone at 200 ug/disk after 24 hrs by disc-diffusion method; type: functional; conditions: read-out: IZ
HT-29 = assay: Growth inhibition of human HT-29 cells at 10 uM after 48 hrs; type: functional; conditions: HT-29, 48 h, read-out: GI
[2] = Growth inhibition of human SF295 cells at 10 uM after 48 hrs; type: functional; conditions: SF-295, 48 h, read-out: GI
[3] = Growth inhibition of human NCI-ADR-RES cells at 10 uM after 48 hrs; type: functional; conditions: read-out: GI
Pseudomonas aeruginosa = assay: Antimicrobial activity against Pseudomonas aeruginosa assessed as inhibition zone at 200 ug/disk after 24 hrs by disc-diffusion method; type: functional; conditions: read-out: IZ
[4] = Growth inhibition of human OVCAR8 cells at 10 uM after 48 hrs; type: functional; conditions: OVCAR-8, 48 h, read-out: GI
SF-268 = assay: Growth inhibition of human SF268 cells at 10 uM after 48 hrs; type: functional; conditions: SF-268, 48 h, read-out: GI
[5] = Growth inhibition of human OVCAR5 cells at 10 uM after 48 hrs; type: functional; conditions: OVCAR-5, 48 h, read-out: GI
SN12C = assay: Growth inhibition of human SN12C cells at 10 uM after 48 hrs; type: functional; conditions: read-out: GI
M14 = assay: Growth inhibition of human M14 cells at 10 uM after 48 hrs; type: functional; conditions: M14, 48 h, read-out: GI
SK-MEL-5 = assay: Growth inhibition of human SK-MEL-5 cells at 10 uM after 48 hrs; type: functional; conditions: SK-MEL-5, 48 h, read-out: GI
KM12 = assay: Growth inhibition of human KM12 cells at 10 uM after 48 hrs; type: functional; conditions: KM12, 48 h, read-out: GI
[6] = Growth inhibition of human UO31 cells at 10 uM after 48 hrs; type: functional; conditions: UO-31, 48 h, read-out: GI
U-251 = assay: Growth inhibition of human U251 cells at 10 uM after 48 hrs; type: functional; conditions: U-251, 48 h, read-out: GI
[7] = Growth inhibition of human HCT15 cells at 10 uM after 48 hrs; type: functional; conditions: HCT-15, 48 h, read-out: GI
[8] = Growth inhibition of human UACC257 cells at 10 uM after 48 hrs; type: functional; conditions: UACC-257, 48 h, read-out: GI
NCI-H23 = assay: Growth inhibition of human NCI-H23 cells at 10 uM after 48 hrs; type: functional; conditions: NCI-H23, 48 h, read-out: GI
[9] = Growth inhibition of human SF539 cells at 10 uM after 48 hrs; type: functional; conditions: SF-539, 48 h, read-out: GI
T47D = assay: Growth inhibition of human T47D cells at 10 uM after 48 hrs; type: functional; conditions: read-out: GI
SNB-19 = assay: Growth inhibition of human SNB19 cells at 10 uM after 48 hrs; type: functional; conditions: SNB-19, 48 h, read-out: GI
Staphylococcus aureus [10] = assay: Antimicrobial activity against Staphylococcus aureus assessed as inhibition zone at 200 ug/disk after 24 hrs by disc-diffusion method; type: functional; conditions: read-out: IZ
[11] = Growth inhibition of human BT549 cells at 10 uM after 48 hrs; type: functional; conditions: BT-549, 48 h, read-out: GI
[12] = Growth inhibition of human PC3 cells at 10 uM after 48 hrs; type: functional; conditions: PC-3, 48 h, read-out: GI
[13] = Growth inhibition of human HOP92 cells at 10 uM after 48 hrs; type: functional; conditions: HOP-92, 48 h, read-out: GI
A498 = assay: Growth inhibition of human A498 cells at 10 uM after 48 hrs; type: functional; conditions: A498, 48 h, read-out: GI
SR = assay: Growth inhibition of human SR cells at 10 uM after 48 hrs; type: functional; conditions: read-out: GI
Dihydrofolate reductase = target: T1, Dihydrofolate reductase (Bos taurus, UniProt P00376); assay: Inhibition of bovine liver DHFR
T1 sequence (P00376 whole entry): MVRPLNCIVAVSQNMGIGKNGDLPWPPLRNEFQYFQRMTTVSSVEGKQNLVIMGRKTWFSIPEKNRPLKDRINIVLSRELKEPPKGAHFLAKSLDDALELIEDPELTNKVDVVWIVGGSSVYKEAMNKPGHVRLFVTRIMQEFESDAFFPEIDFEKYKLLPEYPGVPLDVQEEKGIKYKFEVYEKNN

[14] = Growth inhibition of human LOXIMVI cells at 10 uM after 48 hrs; type: functional; conditions: LOX IMVI, read-out: GI
[15] = Growth inhibition of human Hs 578T cells at 10 uM after 48 hrs; type: functional; conditions: read-out: GI
786-0 = assay: Growth inhibition of human 786-0 cells at 10 uM after 48 hrs; type: functional; conditions: 786-0, 48 h, read-out: GI
A549 = assay: Growth inhibition of human A549 cells at 10 uM after 48 hrs; type: functional; conditions: A549, 48 h, read-out: GI
MDA-MB-231 = assay: Growth inhibition of human MDA-MB-231 cells at 10 uM after 48 hrs; type: functional; conditions: MDA-MB-231, 48 h, read-out: GI
Candida albicans = assay: Antimicrobial activity against Candida albicans assessed as inhibition zone at 200 ug/disk after 24 hrs by disc-diffusion method; type: functional; conditions: read-out: IZ
K562 = assay: Growth inhibition of human K562 cells at 10 uM after 48 hrs; type: functional; conditions: K562, 48 h, read-out: GI
CAKI-1 = assay: Growth inhibition of human CAKI-1 cells at 10 uM after 48 hrs; type: functional; conditions: CAKI-1, 48 h, read-out: GI
[16] = Growth inhibition of human UACC62 cells at 10 uM after 48 hrs; type: functional; conditions: UACC-62, 48 h, read-out: GI
Bacillus subtilis [17] = assay: Antimicrobial activity against Bacillus subtilis assessed as inhibition zone at 200 ug/disk after 24 hrs by disc-diffusion method; type: functional; conditions: read-out: IZ
[18] = Growth inhibition of human MOLT4 cells at 10 uM after 48 hrs; type: functional; conditions: MOLT-4, 48 h, read-out: GI
[19] = Growth inhibition of human RXF393 cells at 10 uM after 48 hrs; type: functional; conditions: RXF 393, 48 h, read-out: GI
[20] = Growth inhibition of human HCT116 cells at 10 uM after 48 hrs; type: functional; conditions: HCT-116, 48 h, read-out: GI
Bacillus subtilis [21] = assay: Antimicrobial activity against Bacillus subtilis assessed as inhibition of visible growth after 24 hrs by disc-diffusion method; type: functional, organism-based
HOP-62 = assay: Growth inhibition of human HOP62 cells at 10 uM after 48 hrs; type: functional; conditions: HOP-62, 48 h, read-out: GI
Staphylococcus aureus [22] = assay: Antimicrobial activity against Staphylococcus aureus assessed as inhibition of visible growth after 24 hrs by disc-diffusion method; type: functional, organism-based
Escherichia coli [23] = assay: Antimicrobial activity against Escherichia coli assessed as inhibition of visible growth after 24 hrs by disc-diffusion method; type: functional, organism-based
MCF7 = assay: Growth inhibition of human MCF7 cells at 10 uM after 48 hrs; type: functional; conditions: MCF7, 48 h, read-out: GI
MDA-MB-435 = assay: Growth inhibition of human MDA-MB-435 cells at 10 uM after 48 hrs; type: functional; conditions: MDA-MB-435, 48 h, read-out: GI
[24] = Growth inhibition of human RPMI8226 cells at 10 uM after 48 hrs; type: functional; conditions: RPMI-8226, 48 h, read-out: GI
[25] = Growth inhibition of human OVCAR4 cells at 10 uM after 48 hrs; type: functional; conditions: OVCAR-4, 48 h, read-out: GI
SNB-75 = assay: Growth inhibition of human SNB75 cells at 10 uM after 48 hrs; type: functional; conditions: SNB-75, 48 h, read-out: GI
HL-60(TB) = assay: Growth inhibition of human HL-60(TB) cells at 10 uM after 48 hrs; type: functional; conditions: HL-60, 48 h, read-out: GI

| SMILES | zone of inhibition at 200 µg/disc (Escherichia coli [1]) [mm] | inhibition of growth at 10 µM [2] [%] | zone of inhibition at 200 µg/disc (Pseudomonas aeruginosa) [mm] | inhibition of growth at 10 µM (SK-MEL-5) [%] | inhibition of growth at 10 µM [6] [%] | inhibition of growth at 10 µM (U-251) [%] | inhibition of growth at 10 µM [7] [%] | zone of inhibition at 200 µg/disc (Staphylococcus aureus [10]) [mm] | inhibition of growth at 10 µM [12] [%] | inhibition of growth at 10 µM [13] [%] | inhibition of growth at 10 µM (A498) [%] | IC50 (Dihydrofolate reductase) [µM] | inhibition of growth at 10 µM (786-0) [%] | inhibition of growth at 10 µM (A549) [%] | inhibition of growth at 10 µM (MDA-MB-231) [%] | zone of inhibition at 200 µg/disc (Candida albicans) [mm] | inhibition of growth at 10 µM (CAKI-1) [%] | inhibition of growth at 10 µM [16] [%] | zone of inhibition at 200 µg/disc (Bacillus subtilis [17]) [mm] | inhibition of growth at 10 µM [19] [%] | other results |
| --- | --- | --- | --- | --- | --- | --- | --- | --- | --- | --- | --- | --- | --- | --- | --- | --- | --- | --- | --- | --- | --- |
| Cc1ccc2nc(Sc3sc(N)nc3C)n(-c3ccc(Cl)cc3)c(=O)c2c1 | 8 | 18.2 | 8 | 16.3 | 46 | 21.5 | 27.7 | 8 | 28.6 | 43.3 | 53 | 7 | 29.3 | 16.9 | 13 | 8 | 11.2 | 26 | 8 | 28.5 | inhibition of growth at 10 µM (HT-29): 11.7%; inhibition of growth at 10 µM [3]: 17.5%; inhibition of growth at 10 µM [4]: 10.8%; inhibition of growth at 10 µM (SF-268): 13.2%; inhibition of growth at 10 µM [5]: 12.1%; inhibition of growth at 10 µM (SN12C): 12.8%; inhibition of growth at 10 µM (M14): 15.6%; inhibition of growth at 10 µM (KM12): 24.6%; inhibition of growth at 10 µM [8]: 13.6%; inhibition of growth at 10 µM (NCI-H23): 10.1%; inhibition of growth at 10 µM [9]: 13.9%; inhibition of growth at 10 µM (T47D): 12.4%; inhibition of growth at 10 µM (SNB-19): 11.6%; inhibition of growth at 10 µM [11]: 33.1%; inhibition of growth at 10 µM (SR): 49.2%; inhibition of growth at 10 µM [14]: 16.5%; inhibition of growth at 10 µM [15]: 12.6%; inhibition of growth at 10 µM (K562): 15.6%; inhibition of growth at 10 µM [18]: 19%; inhibition of growth at 10 µM [20]: 22.8% |
| Nc1nnc(Sc2nc3ccc(Cl)cc3c(=O)n2-c2ccc(Cl)cc2)s1 | 16 | 20.6 | 12 | 10.9 | 24.6 | 11 | 12.7 | 18 | 14.1 | 53.7 | 30.6 | 1 | 15.4 | 11.1 | – | 8 | – | – | 20 | – | Activity (Bacillus subtilis [21]): Active; inhibition of growth at 10 µM [8]: 12.3%; inhibition of growth at 10 µM (T47D): 29.2%; inhibition of growth at 10 µM [15]: 13.3%; inhibition of growth at 10 µM (HOP-62): 16.7%; Activity (Staphylococcus aureus [22]): Active; Activity (Escherichia coli [23]): Active; inhibition of growth at 10 µM (MCF7): 12.7%; inhibition of growth at 10 µM (MDA-MB-435): 10.8%; inhibition of growth at 10 µM [24]: 12.1% |
| COc1ccc(-n2c(Sc3sc(N)nc3C)nc3ccc(C)cc3c2=O)cc1 | 8 | 10.6 | 8 | 15.7 | 26.2 | 15.7 | 25.3 | 8 | 15.9 | 42.3 | 24.6 | 7 | 12 | 15.6 | 25 | 8 | 11.5 | 15.4 | 8 | 28 | inhibition of growth at 10 µM [3]: 11.3%; inhibition of growth at 10 µM [4]: 13.4%; inhibition of growth at 10 µM (SF-268): 10.6%; inhibition of growth at 10 µM [5]: 17.9%; inhibition of growth at 10 µM (KM12): 19.4%; inhibition of growth at 10 µM (SNB-19): 15.5%; inhibition of growth at 10 µM [11]: 20.6%; inhibition of growth at 10 µM [14]: 11%; inhibition of growth at 10 µM (K562): 13%; inhibition of growth at 10 µM [25]: 12.9%; inhibition of growth at 10 µM (SNB-75): 11.9%; inhibition of growth at 10 µM [20]: 19.1%; inhibition of growth at 10 µM [24]: 16.2% |
| Cc1ccc(-n2c(Sc3nnc(N)s3)nc3ccc(C)cc3c2=O)cc1 | 8 | – | 8 | – | 23.2 | – | – | 8 | 11.8 | 21.1 | 14.2 | 8 | – | – | 21.9 | 8 | 10.4 | 14.8 | 8 | 10.5 | inhibition of growth at 10 µM (HL-60(TB)): 28.2%; inhibition of growth at 10 µM [9]: 15.6%; inhibition of growth at 10 µM (SR): 32.7%; inhibition of growth at 10 µM [20]: 11.6% |
